The nature of experiment [1]: Binding affinity to Pyrococcus horikoshii sodium-coupled aspartate transporter.
The test system of experiment [2] is Pyrococcus horikoshii. Kind of experiment: Inhibition of [3H]L-aspartate uptake at Pyrococcus horikoshii sodium-coupled aspartate transporter in presence of thallium.
Experiment [3] can be described thus: Binding affinity to Pyrococcus horikoshii sodium-coupled aspartate transporter by isothermal titration calorimetry in presence of NaCl.
In experiment [4] the target is Glutamate transporter homolog (Pyrococcus horikoshii (strain ATCC 700860 / DSM 12428 / JCM 9974 /NBRC 100139 / OT-3), UniProt O59010, D405N). Briefly: Binding affinity to Pyrococcus horikoshii sodium-coupled aspartate transporter D405N mutant in presence of NaCl.
Sequence of Glutamate transporter homolog (O59010 whole entry D405N): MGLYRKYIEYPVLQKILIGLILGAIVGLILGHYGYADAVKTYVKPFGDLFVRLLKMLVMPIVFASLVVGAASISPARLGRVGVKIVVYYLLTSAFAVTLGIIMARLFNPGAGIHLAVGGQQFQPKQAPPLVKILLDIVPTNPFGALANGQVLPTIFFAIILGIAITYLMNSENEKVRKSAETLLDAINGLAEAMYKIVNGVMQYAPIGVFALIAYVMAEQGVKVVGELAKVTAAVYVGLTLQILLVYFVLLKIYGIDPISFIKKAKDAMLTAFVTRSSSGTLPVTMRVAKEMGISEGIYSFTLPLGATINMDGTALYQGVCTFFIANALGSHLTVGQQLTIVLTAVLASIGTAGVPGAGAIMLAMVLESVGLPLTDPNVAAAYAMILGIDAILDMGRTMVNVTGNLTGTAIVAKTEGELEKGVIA

Activity calls are given as the source filed them. No cut-off for these calls is given here.

What is called Kd is a measure of binding affinity in units of concentration. In the case of `N[C@@H](CO)C(=O)O` [SERINE], the Kd in experiment [1] was found to be 160 µM.
On to `N[C@@H](CS(=O)O)C(=O)O`, for which the equilibrium dissociation constant (Kd) in experiment [1] was found to be 0.02 µM.
As to `O=C(O)CCC(=O)O` [SUCCINIC ACID], the Kd in experiment [1] stood at 1450 µM.
For `N[C@@H](CC(=O)O)C(=O)O` [ASPARTIC ACID], the outcome in experiment [2] was inactive. Moreover, the Kd in experiment [3] is 94 nM.
As to `N[C@H](CC(=O)O)C(=O)O` [D-ASPARTATE], the Kd in experiment [1] was found to be 0.009 µM.
`NC(C(=O)O)C(OCc1ccccc1)C(=O)O` (racemic): the equilibrium dissociation constant (Kd) in experiment [4] is 100 nM.
For the molecule `N[C@H](CCC(=O)O)C(=O)O` [D-GLUTAMATE], the dissociation constant (Kd) in experiment [1] amounted to 162 µM.
`N[C@@H](CCC(=O)O)C(=O)O` [GLUTAMIC ACID] showed a dissociation constant (Kd) in experiment [1] of 122 µM.

Values taken from ChEMBL document CHEMBL1147051, “Coupling substrate and ion binding to extracellular gate of a sodium-dependent aspartate transporter” (Nature, 2007).
